PMC11378702 (RSC Advances, 2024)
Where two headings read alike, the source gives them in different places.

How the values were obtained:
EGFR^WT = EGFR^WT (Homo sapiens, UniProt P00533); assay: biochemical
EGFR^T790M = EGFR^T790M (Homo sapiens, UniProt P00533, T790M); assay: biochemical; type: biochemical
A549 = assay: cells; type: cell-based; conditions: Homo sapiens, A549, 48 h, read-out: IC50 (μM) A549
H1975 = assay: MTT anti-proliferative assay, H1975 cells; type: cell-based; conditions: Homo sapiens, NCI-H1975, 48 h, read-out: IC50 (μM) H1975
A431 = assay: MTT anti-proliferative assay, A431 cells; type: cell-based, human; conditions: read-out: IC50 (μM) A431

Chain of EGFR^T790M (P00533 25-1210 T790M): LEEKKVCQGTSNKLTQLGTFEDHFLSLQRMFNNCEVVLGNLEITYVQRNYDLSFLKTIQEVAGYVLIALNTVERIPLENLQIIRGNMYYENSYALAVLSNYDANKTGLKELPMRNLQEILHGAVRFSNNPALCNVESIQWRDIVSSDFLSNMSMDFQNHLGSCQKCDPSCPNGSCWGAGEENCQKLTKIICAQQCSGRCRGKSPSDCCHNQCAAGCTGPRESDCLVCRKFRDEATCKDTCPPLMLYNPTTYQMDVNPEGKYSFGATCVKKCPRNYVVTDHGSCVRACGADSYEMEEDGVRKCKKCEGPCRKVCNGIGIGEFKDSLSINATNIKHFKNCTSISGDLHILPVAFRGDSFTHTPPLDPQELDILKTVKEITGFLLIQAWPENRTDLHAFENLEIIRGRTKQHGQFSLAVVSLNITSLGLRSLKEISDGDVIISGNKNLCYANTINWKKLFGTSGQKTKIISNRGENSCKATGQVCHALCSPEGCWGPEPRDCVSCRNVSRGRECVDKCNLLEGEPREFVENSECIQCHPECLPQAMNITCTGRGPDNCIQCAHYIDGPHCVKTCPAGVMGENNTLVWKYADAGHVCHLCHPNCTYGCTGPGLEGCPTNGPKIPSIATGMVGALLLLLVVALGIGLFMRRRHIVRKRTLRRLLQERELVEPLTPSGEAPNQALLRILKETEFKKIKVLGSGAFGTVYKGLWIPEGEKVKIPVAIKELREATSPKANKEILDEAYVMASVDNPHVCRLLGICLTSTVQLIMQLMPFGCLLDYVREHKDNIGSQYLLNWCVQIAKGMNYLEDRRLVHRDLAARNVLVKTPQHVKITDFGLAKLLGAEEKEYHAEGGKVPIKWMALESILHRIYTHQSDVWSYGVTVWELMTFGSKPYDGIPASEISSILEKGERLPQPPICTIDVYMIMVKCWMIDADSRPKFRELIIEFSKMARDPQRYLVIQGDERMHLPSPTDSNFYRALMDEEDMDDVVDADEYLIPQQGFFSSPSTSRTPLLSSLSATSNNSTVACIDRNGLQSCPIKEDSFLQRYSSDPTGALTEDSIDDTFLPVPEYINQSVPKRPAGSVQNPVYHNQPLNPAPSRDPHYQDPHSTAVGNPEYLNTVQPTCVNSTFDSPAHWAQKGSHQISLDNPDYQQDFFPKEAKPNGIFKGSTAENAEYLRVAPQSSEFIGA
Chain of EGFR^WT (P00533 25-1210): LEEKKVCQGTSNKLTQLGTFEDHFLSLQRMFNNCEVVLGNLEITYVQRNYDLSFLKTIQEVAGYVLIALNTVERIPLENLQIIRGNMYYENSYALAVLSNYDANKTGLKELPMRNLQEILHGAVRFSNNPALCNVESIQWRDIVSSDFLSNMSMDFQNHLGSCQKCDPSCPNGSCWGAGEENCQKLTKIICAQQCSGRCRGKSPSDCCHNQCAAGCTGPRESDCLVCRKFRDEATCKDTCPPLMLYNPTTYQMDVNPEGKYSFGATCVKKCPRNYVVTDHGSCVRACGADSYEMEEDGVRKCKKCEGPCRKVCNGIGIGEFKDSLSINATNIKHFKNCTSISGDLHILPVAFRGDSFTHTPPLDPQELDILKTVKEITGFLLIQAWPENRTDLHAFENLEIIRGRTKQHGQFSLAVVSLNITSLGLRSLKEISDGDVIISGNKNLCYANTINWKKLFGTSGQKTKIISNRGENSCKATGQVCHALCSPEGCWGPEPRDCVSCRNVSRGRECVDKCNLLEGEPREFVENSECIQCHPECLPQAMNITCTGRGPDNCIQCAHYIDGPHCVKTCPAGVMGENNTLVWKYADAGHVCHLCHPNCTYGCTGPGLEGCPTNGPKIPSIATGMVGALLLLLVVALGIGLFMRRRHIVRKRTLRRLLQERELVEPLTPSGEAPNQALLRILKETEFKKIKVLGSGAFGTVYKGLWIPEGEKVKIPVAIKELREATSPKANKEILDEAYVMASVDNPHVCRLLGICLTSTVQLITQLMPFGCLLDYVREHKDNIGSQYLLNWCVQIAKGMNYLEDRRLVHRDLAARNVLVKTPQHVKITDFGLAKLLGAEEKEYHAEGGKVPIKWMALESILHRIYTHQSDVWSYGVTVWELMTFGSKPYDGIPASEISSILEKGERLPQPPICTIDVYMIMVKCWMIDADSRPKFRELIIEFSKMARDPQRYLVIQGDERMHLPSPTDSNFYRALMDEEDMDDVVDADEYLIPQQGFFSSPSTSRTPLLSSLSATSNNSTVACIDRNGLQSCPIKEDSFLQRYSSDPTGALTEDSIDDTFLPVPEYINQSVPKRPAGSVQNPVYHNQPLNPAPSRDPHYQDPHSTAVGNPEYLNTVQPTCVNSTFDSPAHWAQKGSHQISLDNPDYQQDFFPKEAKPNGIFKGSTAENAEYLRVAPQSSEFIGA

Structure (SMILES)	IC50 (EGFR^WT)	IC50 (EGFR^T790M)	IC50 (A549)	IC50 (H1975)	fold more potent than gefitinib (EGFR^T790M IC50) (EGFR^T790M; relative to gefitinib)	IC50 (A431; MTT, two-day incubation, mean ± SD, n = 3)	IC50 (A431; Homo sapiens, A-431, 48 h)
CCC(=O)C(=NNc1ccc(S(=O)(=O)Nc2ncccn2)cc1)C(C)=O [Compound 5, 4-(2-(2,4-Dioxohexan-3-ylidene)hydrazineyl)-N-(pyrimidin-2-yl)benzenesulfonamide]	0.0492 ± 0.0067 µM	0.0936 ± 0.0085 µM	19.2 ± 3.09 µM	20.1 ± 2.21 µM			
CC(=O)C(=NNc1ccc(S(=O)(=O)Nc2ncccn2)cc1)C(C)=O [Compound 6, 4-(2-(2,4-Dioxopentan-3-ylidene)hydrazineyl)-N-(pyrimidin-2-yl)benzenesulfonamide]	0.0526 ± 0.0093 µM	0.0668 ± 0.0104 µM	16.6 ± 0.92 µM	15.7 ± 0.21 µM			
CC(=O)C(=NNc1ccc(S(=O)(=O)Nc2ncccn2)cc1)C(=O)c1ccccc1 [Compound 8, 4-[2-(1-Benzoyl-2-oxopropylidene)hydrazino]-N-pyrimidin-2-ylbenzenesulfonamide]	0.0232 ± 0.0001 µM	0.0096 ± 0.0032 µM	4.78 ± 0.12 µM	2.31 ± 0.23 µM	38 fold	4.12 ± 0.54 µM	
CCOC(=O)/C(C#N)=N\Nc1ccc(S(=O)(=O)Nc2ncccn2)cc1 [Compound 9, Ethyl (Z)-2-cyano-2-(2-(4-(N-(pyrimidin-2-yl)sulfamoyl)phenyl)hydrazineylidene)acetate]	0.0435 ± 0.0002 µM	0.0171 ± 0.0001 µM	15 ± 1.27 µM	13.1 ± 0.67 µM			
N#CC(=NNc1ccc(S(=O)(=O)Nc2ncccn2)cc1)C(N)=S [Compound 10, 2-Cyano-(2-(4-(N-(pyrimidin-2-yl)sulfamoyl)phenyl)hydrazono)ethanethioamide]	0.0315 ± 0.0058 µM	0.0608 ± 0.0062 µM	19.7 ± 0.34 µM	15.8 ± 2.48 µM			
N#CC(=NNc1ccc(S(=O)(=O)Nc2ncccn2)cc1)C(N)=C(C#N)C#N [Compound 11, 2-Amino-3,3-dicyano-N-(4-(N-(pyrimidin-2-yl)sulfamoyl)phenyl)acrylohydrazonoyl cyanide]	0.0477 ± 0.0114 µM	0.133 ± 0.0162 µM	13.6 ± 1.32 µM	14.1 ± 1.23 µM			15.1 ± 0.58 µM
CCOC(=O)C(=NNc1ccc(S(=O)(=O)Nc2ncccn2)cc1)C(=O)OCC [Compound 12, Diethyl 2-(2-(4-(N-(pyrimidin-2-yl)sulfamoyl)phenyl)hydrazineylidene)malonate]	0.0145 ± 0.0075 µM	0.0354 ± 0.0086 µM	5.15 ± 0.3 µM	6.12 ± 0.24 µM			
CSC1=NC(=N)C(=NNc2ccc(S(=O)(=O)Nc3ncccn3)cc2)C(N)=C1C#N [Compound 13, 4-{-2-[4-Amino-5-cyano-2-imino-6-(methylthio)pyridin-3(2H)-ylidene]hydrazino}-N-pyrimidin-2-ylbenzenesulfonamide]	0.0417 ± 0.0082 µM	0.215 ± 0.0152 µM	15.5 ± 1.34 µM	17.1 ± 1.62 µM			
CSc1nc(NC(=O)C(=NNc2ccc(S(=O)(=O)Nc3ncccn3)cc2)C(C)=O)cc(N)c1C#N [Compound 14, N-(4-Amino-5-cyano-6-(methylthio)pyridin-2-yl)-3-oxo-2-{[4-(pyrimidin-2-ylsulfamoyl)phenyl]hydrazono}butanamide]	0.0153 ± 0.0031 µM	0.0243 ± 0.0034 µM	7.56 ± 0.27 µM	4.59 ± 0.43 µM			
C#Cc1cccc(Nc2ncnc3cc(OCCOC)c(OCCOC)cc23)c1 [Erlotinib, reference compound]			17.5 ± 2.34 µM	12.9 ± 1.23 µM			
C=CC(=O)Nc1cc(Nc2nccc(-c3cn(C)c4ccccc34)n2)c(OC)cc1N(C)CCN(C)C [Osimertinib, reference compound]				0.93 ± 0.09 µM			
